In test [1] the target is α-glucosidase from Saccharomyces cerevisiae (Saccharomyces cerevisiae, UniProt P53341). Kind of test: α-Glucosidase inhibition, chromogenic assay. It counts as biochemical. To be noted: for inhibition at 15.62 µg/mL / inhibition at 31.25 µg/mL / inhibition at 62.5 µg/mL / inhibition at 125 µg/mL / inhibition at 250 µg/mL / inhibition at 500 µg/mL / inhibition at 1000 µg/mL: read-out: (%) Inhibition α-glucosidase.

In the next test the target is α-glucosidase (Saccharomyces cerevisiae, UniProt P53341). Kind of test: Michaelis–Menten kinetics of α-glucosidase inhibition. Format: biochemical. The note with it: Michaelis–Menten / Lineweaver–Burk.
Chain of α-glucosidase (P53341 whole entry): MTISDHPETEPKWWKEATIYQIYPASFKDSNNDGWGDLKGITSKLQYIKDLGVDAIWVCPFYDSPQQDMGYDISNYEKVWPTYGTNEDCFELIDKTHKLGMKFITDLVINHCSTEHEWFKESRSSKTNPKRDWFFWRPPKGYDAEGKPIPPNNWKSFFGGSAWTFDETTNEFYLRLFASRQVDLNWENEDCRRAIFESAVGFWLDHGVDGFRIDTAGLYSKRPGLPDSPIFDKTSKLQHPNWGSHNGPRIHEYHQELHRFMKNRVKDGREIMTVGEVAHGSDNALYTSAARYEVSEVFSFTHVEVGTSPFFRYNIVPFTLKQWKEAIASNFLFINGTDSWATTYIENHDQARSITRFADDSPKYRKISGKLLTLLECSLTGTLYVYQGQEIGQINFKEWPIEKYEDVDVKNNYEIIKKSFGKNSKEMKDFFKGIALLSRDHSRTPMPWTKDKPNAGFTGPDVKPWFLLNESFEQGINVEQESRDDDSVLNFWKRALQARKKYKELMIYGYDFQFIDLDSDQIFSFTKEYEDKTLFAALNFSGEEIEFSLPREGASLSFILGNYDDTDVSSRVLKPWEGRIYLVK
A short description of test [2]: DPPH radicals scavenging assay. The note with it: for IC50: read-out: IC50 DPPH free radicals scavenging. A general note: The DPPH test is a chemical assay of radical scavenging.
Test [3] can be described thus: ABTS free radicals scavenging assay. To be noted: for IC50: read-out: IC50 ABTS free radicals scavenging.
For another test, the target named is AChE electric eel (Electrophorus electricus, UniProt O42275). In words: biochemical. The note with it: for inhibition at 15.62 µg/mL / inhibition at 31.25 µg/mL / inhibition at 62.5 µg/mL / inhibition at 125 µg/mL / inhibition at 250 µg/mL / inhibition at 500 µg/mL / inhibition at 1000 µg/mL: read-out: (%) Inhibition AChE.
Chain of AChE electric eel (O42275 24-633): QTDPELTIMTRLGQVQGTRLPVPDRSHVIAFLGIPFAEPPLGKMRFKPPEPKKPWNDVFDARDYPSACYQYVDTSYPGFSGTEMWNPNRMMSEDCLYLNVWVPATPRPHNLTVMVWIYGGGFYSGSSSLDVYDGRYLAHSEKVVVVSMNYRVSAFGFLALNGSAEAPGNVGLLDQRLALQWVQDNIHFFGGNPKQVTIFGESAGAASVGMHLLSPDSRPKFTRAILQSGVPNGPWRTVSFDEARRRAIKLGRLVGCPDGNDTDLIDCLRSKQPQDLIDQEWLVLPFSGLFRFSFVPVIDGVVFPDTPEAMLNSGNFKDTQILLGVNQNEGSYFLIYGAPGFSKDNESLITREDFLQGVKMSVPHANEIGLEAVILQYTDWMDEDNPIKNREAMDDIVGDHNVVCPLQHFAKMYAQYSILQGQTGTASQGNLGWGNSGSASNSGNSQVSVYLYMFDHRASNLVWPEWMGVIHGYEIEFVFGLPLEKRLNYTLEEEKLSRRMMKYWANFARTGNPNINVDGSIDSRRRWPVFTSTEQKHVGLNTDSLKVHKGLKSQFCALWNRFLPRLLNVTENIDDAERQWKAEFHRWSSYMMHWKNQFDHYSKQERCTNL
Test [4] addresses BChE (lyophilized equine serum) (Equus caballus, UniProt P81908). In words: Butyrylcholinesterase inhibition, Ellman's assay. It counts as biochemical. The note with it: for inhibition at 15.62 µg/mL / inhibition at 31.25 µg/mL / inhibition at 62.5 µg/mL / inhibition at 125 µg/mL / inhibition at 250 µg/mL / inhibition at 500 µg/mL / inhibition at 1000 µg/mL: read-out: (%) Inhibition BChE. Background: In Ellman's method for cholinesterases, released thiocholine reacts with DTNB.

Test [5] can be described thus: Hydrogen peroxide free radicals scavenging assay. The note with it: read-out: IC50 H2O2 free radicals scavenging.
The target of a further test is acetylcholinesterase (Electrophorus electricus, UniProt O42275). Kind of test: Michaelis–Menten kinetics of acetylcholinesterase inhibition. Format: biochemical, electric eel. The note with it: Michaelis–Menten / Lineweaver–Burk.
Chain of acetylcholinesterase (O42275 24-633): as above
The next test has as its target butyrylcholinesterase (Equus caballus, UniProt P81908). In words: Michaelis–Menten kinetics of butyrylcholinesterase inhibition. It counts as biochemical, equine. The note with it: Michaelis–Menten / Lineweaver–Burk.

Consider five compounds from publication PMC7285812 (Drug Design, Development and Therapy, 2020).

SMILES strings stand for the structures. Where “and” joins values, the source holds several entries; their conditions need not be identical. Identical values can stand only once. Counter-ions that a name gives are not always drawn.

Chain of α-glucosidase from Saccharomyces cerevisiae (P53341 whole entry): as the sequence (P53341 whole entry) above
Chain of BChE (lyophilized equine serum) (P81908 whole entry): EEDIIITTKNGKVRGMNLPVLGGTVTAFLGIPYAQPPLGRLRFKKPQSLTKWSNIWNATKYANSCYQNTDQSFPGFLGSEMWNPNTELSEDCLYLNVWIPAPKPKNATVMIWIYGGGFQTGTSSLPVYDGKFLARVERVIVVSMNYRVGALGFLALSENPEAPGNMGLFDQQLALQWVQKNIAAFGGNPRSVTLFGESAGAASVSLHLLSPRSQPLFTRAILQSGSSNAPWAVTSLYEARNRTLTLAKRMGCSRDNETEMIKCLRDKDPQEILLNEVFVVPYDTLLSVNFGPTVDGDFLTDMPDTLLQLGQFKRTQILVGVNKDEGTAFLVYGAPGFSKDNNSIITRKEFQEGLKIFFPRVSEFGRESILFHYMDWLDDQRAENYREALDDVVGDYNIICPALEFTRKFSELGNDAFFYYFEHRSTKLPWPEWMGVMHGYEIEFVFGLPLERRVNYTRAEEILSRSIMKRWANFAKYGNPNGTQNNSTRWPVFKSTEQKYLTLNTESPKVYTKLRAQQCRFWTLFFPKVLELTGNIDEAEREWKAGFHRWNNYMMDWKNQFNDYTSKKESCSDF
Chain of butyrylcholinesterase (P81908 whole entry): as above

In general, inhibition refers to how much of the control response was suppressed. `C[C@H]1O[C@H](O[C@H]2[C@H](O)[C@@H](O)[C@@H](O[C@H]3[C@H](O)[C@@H](O)C(O)O[C@@H]3CO)O[C@@H]2CO)[C@H](O)[C@@H](O)[C@@H]1N[C@H]1C=C(CO)[C@@H](O)[C@H](O)[C@H]1O` (some centres unmarked) [Acarbose (Std), acarbose, reference compound]: in [1], the inhibition at 15.62 µg/mL was 41.8 ± 0.37%, the inhibition at 31.25 µg/mL amounted to 49.9 ± 0.48%, the inhibition at 62.5 µg/mL amounted to 57.7 ± 0.88% and the inhibition at 125 µg/mL is 63.9 ± 1.27%. Also, in test [1], the inhibition at 250 µg/mL came to 72 ± 2.01%, the inhibition at 500 µg/mL is 75.1 ± 1.04% and the inhibition at 1000 µg/mL came out at 83.6 ± 1.67%. The “Vmax, α-glucosidase” value on α-glucosidase was 2.639 µg/min and 2.616 µg/min.
Broadly, the IC50 is the midpoint of a concentration-inhibition curve. For `O=C1O[C@H]([C@@H](O)CO)C(O)=C1O` [Ascorbic acid (Std.), ascorbic acid, reference compound], the “(%) Inhibition DPPH” value came out at 48.70 ± 0.90% in [2] (15.62 μg/mL); 55.23 ± 1.21% in test [2] (31.25 μg/mL); 61.40 ± 1.85% in test [2] (62.5 μg/mL); 69.66 ± 1.36% in test [2] (125 μg/mL); 77.00 ± 1.73% in test [2] (250 μg/mL); 83.96 ± 1.91% in test [2] (500 μg/mL). Further, the “(%) Inhibition DPPH” value in [2] (1000 μg/mL) amounted to 89.00 ± 0.57%. In addition, the IC50 was 96.5 µM in test [2] and 85.2 µM in [3]. In addition, the “(%) Inhibition ABTS” value in [3] (15.62 μg/mL) was 46.00±0.58%; in [3] (31.25 μg/mL) it was 52.67±0.89%; in test [3] (62.5 μg/mL) it was 58.00±1.15%; in test [3] (125 μg/mL), 67.00±0.00%; in [3] (250 μg/mL), 75.03±0.23%; in [3] (500 μg/mL), 81.70±1.60%. The “(%) Inhibition ABTS” value in test [3] (1000 μg/mL) is recorded as 87.73±0.78%.
`O=CC1([C@@H]2CC(=O)N(c3ccccc3)C2=O)CCCCC1` [Compound 1, (S)-1-(2,5-dioxo-1-phenylpyrrolidin-3-yl) cyclohexanecarbaldehyde]: the half-maximal inhibitory concentration (IC50) worked out at 343 µM against AChE electric eel; 277 µM in [4]; 298 µM in test [2]; 333 µM in [3]; 826 µM in test [5]; 158 µM in test [1]. Moreover, the inhibition at 15.62 µg/mL turned out to be 12.8 ± 1.5% at AChE electric eel, 15.4 ± 0.9% in [4] and 28 ± 0.35% in [1]. Also, the figures for the inhibition at 31.25 µg/mL (at AChE electric eel; in test [4]; in test [1]) were 23.9 ± 0.88%, 26.1 ± 1.04% and 34.4 ± 0.43%, respectively. Also, the inhibition at 62.5 µg/mL was determined as 41.1 ± 0.47% on AChE electric eel, 44.6 ± 0.63% in test [4] and 44.9 ± 1.55% in test [1]. Moreover, the inhibition at 125 µg/mL at AChE electric eel turned out to be 57.03 ± 0.35%; in test [4], 59.8 ± 1.21%; in [1], 58.8 ± 0.71%. The inhibition at 250 µg/mL at AChE electric eel worked out at 68.6 ± 1.06%; in test [4] it was 69.7 ± 0.91%; in test [1] it was 68.8 ± 1.24%. Moreover, the figures for the inhibition at 500 µg/mL (at AChE electric eel; in test [4]; in [1]) were 72.76 ± 0.71%, 75.76 ± 0.61% and 72.9 ± 0.96%, respectively. Further, the inhibition at 1000 µg/mL at AChE electric eel came out at 78.42 ± 0.43%; in test [4], 81.49 ± 0.6%; in test [1], 79.6 ± 1.12%. The “(%) Inhibition DPPH” value in test [2] (15.62 μg/mL) amounted to 28.23 ± 1.71 %; in test [2] (31.25 μg/mL) it was 34.05 ± 1.40 %; in test [2] (62.5 μg/mL), 44.66 ± 0.88 %; in test [2] (125 μg/mL) it was 58.50 ± 1.61 %; in [2] (250 μg/mL), 68.40 ± 1.97 %; in [2] (500 μg/mL), 72.83 ± 1.89 %. Moreover, in [2] (1000 μg/mL), the “(%) Inhibition DPPH” value is on record as 79.53 ± 1.92 %. Further, the “(%) Inhibition ABTS” value stood at 16.60±1.63 % in test [3] (15.62 μg/mL); 26.87±0.85 % in test [3] (31.25 μg/mL); 40.51±0.54 % in test [3] (62.5 μg/mL); 54.49±0.60 % in test [3] (125 μg/mL); 61.22±1.28 % in [3] (250 μg/mL); 67.31±0.58 % in test [3] (500 μg/mL). Also, the “(%) Inhibition ABTS” value in [3] (1000 μg/mL) is recorded as 79.87±1.27 %. For the same compound, at acetylcholinesterase, the “Vmax, acetylcholinesterase inhibition” value amounted to 84.93 µg/min. The “Vmax, butyrylcholinesterase inhibition” value at butyrylcholinesterase was determined as 1.553 µg/min. Moreover, the “Vmax, α-glucosidase” value at α-glucosidase was determined as 2.360 µg/min.
`C[C@](C=O)(c1ccccc1)[C@@H]1CC(=O)N(c2ccccc2)C1=O` [Compound 2, (R)-2-((S)-2,5-dioxo-1-phenylpyrrolidin-3-yl)-2-phenylpropanal]: the IC50 on AChE electric eel was found to be 423 µM; in test [4], 358 µM; in [2] it was 407 µM; in test [3], 498 µM; in [1], 472 µM. Further, the results for the inhibition at 15.62 µg/mL (at AChE electric eel; in [4]; in test [1]) were 21.3 ± 0.87%, 23.4 ± 0.82% and 28.8 ± 1.5%, respectively. The inhibition at 31.25 µg/mL at AChE electric eel stood at 27.2 ± 0.47%; in test [4] it was 31.2 ± 0.47%; in test [1], 34 ± 0.35%. Further, the inhibition at 62.5 µg/mL on AChE electric eel is 39.1 ± 0.54%; in test [4], 42 ± 0.97%; in test [1], 41.9 ± 0.96%. The inhibition at 125 µg/mL on AChE electric eel turned out to be 48 ± 0.3%; in test [4] it was 51.9 ± 0.45%; in test [1], 47.8 ± 1.5%. Moreover, the inhibition at 250 µg/mL on AChE electric eel is 59.9 ± 0.6%; in test [4] it was 62.12 ± 0.54%; in [1] it was 55.8 ± 0.71%. The inhibition at 500 µg/mL at AChE electric eel was 70.5 ± 0.9%; in test [4] it was 72.54 ± 0.6%; in test [1], 65.08 ± 0.47%. Further, the inhibition at 1000 µg/mL at AChE electric eel turned out to be 77.23 ± 0.22%; in [4], 79 ± 1.03%; in test [1] it was 71.8 ± 1.24%. The “(%) Inhibition DPPH” value came out at 13.70±1.60 % in test [2] (15.62 μg/mL); 23.55 ± 1.85 % in test [2] (31.25 μg/mL); 36.36 ± 0.91 % in test [2] (62.5 μg/mL); 50.07 ± 0.97 % in test [2] (125 μg/mL); 61.31 ± 1.97 % in test [2] (250 μg/mL); 70.34 ±1.10 % in test [2] (500 μg/mL). Besides, in [2] (1000 μg/mL), the “(%) Inhibition DPPH” value was determined as 77.04 ± 1.61 %. Also, the “(%) Inhibition ABTS” value in [3] (15.62 μg/mL) worked out at 12.33±1.67 %; in test [3] (31.25 μg/mL), 22.83±1.21 %; in [3] (62.5 μg/mL), 38.10±0.90 %; in test [3] (125 μg/mL), 49.31±0.58 %; in test [3] (250 μg/mL) it was 59.87±0.85 %; in test [3] (500 μg/mL) it was 68.51±0.54 %. Moreover, the “(%) Inhibition ABTS” value in test [3] (1000 μg/mL) turned out to be 75.76±0.61 %. Further, the “Vmax, acetylcholinesterase inhibition” value at acetylcholinesterase was determined as 78.65 µg/min. Also, on butyrylcholinesterase, the “Vmax, butyrylcholinesterase inhibition” value stood at 2.867 µg/min. Also, at α-glucosidase, the “Vmax, α-glucosidase” value is 3.542 µg/min.
`COc1ccc2c3c1O[C@H]1C[C@@H](O)C=C[C@@]31CCN(C)C2` [Galanthamine (Std.), galanthamine hydrobromide, reference compound]: in [4], the inhibition at 15.62 µg/mL was found to be 49.7 ± 0.68%, the inhibition at 31.25 µg/mL was found to be 59.33 ± 0.49%, the inhibition at 62.5 µg/mL stood at 69.03 ± 0.23% and the inhibition at 125 µg/mL was determined as 73.23 ± 0.4%. In [4], the inhibition at 250 µg/mL turned out to be 80.74 ± 0.68%, the inhibition at 500 µg/mL was 86.9 ± 0.48% and the inhibition at 1000 µg/mL was 93.9 ± 0.96%. The “Vmax, butyrylcholinesterase inhibition” value on butyrylcholinesterase (listed as galantamine) is 2.566 µg/min and 2.641 µg/min.
